Experimental data reported in paper PMC6107785, “Thiodipeptides targeting the intestinal oligopeptide transporter as a general approach to improving oral drug delivery” (European Journal of Medicinal Chemistry, 2018).
Where a name gives a salt, the structure may show the parent alone. Read-outs that look alike come from different tables or passages of the source. Peptide text beside a SMILES is read from it.

Assays:
[1] = Stability in rat liver homogenate; format: in vitro ADME; conditions: 37 °C; for half-life at 0.5 mM: male, rat, rat liver homogenate, pH 7.5, 0.5 mM compound, read-out: Rat liver homgenate t1/2 (converted)
Protocol: Fresh rat liver homogenate was prepared by isolating liver from euthanized male rats, according to approved Home Office procedures. The liver was chopped with scissors and rinsed with medium (0.25 M sucrose, 25 mM KCl, 5 mM MgCl2 and 50 mM Tris/HCl, pH7.5) to remove trapped blood. The liver was then homogenized in fresh medium with a loose-fitting dounce-type homogenizer and kept on ice. Liver homogenate was incubated with either 0.5 mM compound 1 or 3, or L-Trp-L-Ala as a positive control, at 37 °C. 250 μl aliquots of the homogenate were taken at 0, 0.25, 0.5, 1, 2, 6 and 24 h. The samples were precipitated by addition an equal volume of 3% perchloric acid and centrifugation at 17000g for 5 min. The perchloric acid was neutralized with 250 μl of 1 M KOH, and the sample subjected to a freeze/thaw cycle to precipitate the KClO4 salt before again being centrifuged. The supernatant was then analyzed by HPLC as for the Caco-2 permeability studies, and the half-life of the compounds calculated according to the method of Vig et al..

[2] = Oral pharmacokinetics in male Sprague-Dawley rats; conditions: for Cmax / Tmax: rat plasma
Protocol: (§2) Animals were given free access to food and water throughout the study and maintained under a 12-h light/dark cycle with temperature and humidity controlled according to Home Office regulations.
(§3) Blood samples (230 μL) were taken from the carotid artery at the following time points and placed in heparinized tubes: predose, 0.25, 0.5, 1, 2, 4, 8 and 24 h post dose. After the final time point the animals were sacrificed by an overdose of anaesthetic.
(§4) Blood samples were centrifuged to obtain the plasma, which was transferred to a separate labelled container. Aliquots from the individual time points for the three animals were analyzed singly. 80 μL of plasma was diluted with 20 μL of 1:1 ACN:water, then 800 μL chilled ACN was added, samples briefly vortex mixed and the centrifuged at 13000 rpm for 5 min at 4 °C. 500 μL of the resultant supernatant was further diluted with 500 μL water.
(§5) 20 μL sample was analyzed by LC-MS/MS using a C18 5 μm Gemini UHPLC column running a gradient of 90% 0.04% acetic acid in water to 90% ACN over 3 min at a flow rate of 0.5 mL min^−1. MS data was acquired under multiple reaction monitoring conditions using a turbo spray ion source. The concentration in the plasma was determined by comparison to standard curves of the administered compound prepared in blank plasma matrices and treated in an identical manner to the samples.

[3] = target: T1, rabbit PepT1 (Oryctolagus cuniculus, UniProt P36836); assay: Trans-stimulation efflux of [3H]-D-Phe-L-Gln from rabbit PepT1 expressing oocytes; format: cell-based; conditions: 10 mM prodrug, [3H]-D-Phe-L-Gln efflux, compared to GlyGln
T1 construct: expressed in transfected cells; host or cells: Xenopus laevis oocytes
T1 sequence (P36836 1-707): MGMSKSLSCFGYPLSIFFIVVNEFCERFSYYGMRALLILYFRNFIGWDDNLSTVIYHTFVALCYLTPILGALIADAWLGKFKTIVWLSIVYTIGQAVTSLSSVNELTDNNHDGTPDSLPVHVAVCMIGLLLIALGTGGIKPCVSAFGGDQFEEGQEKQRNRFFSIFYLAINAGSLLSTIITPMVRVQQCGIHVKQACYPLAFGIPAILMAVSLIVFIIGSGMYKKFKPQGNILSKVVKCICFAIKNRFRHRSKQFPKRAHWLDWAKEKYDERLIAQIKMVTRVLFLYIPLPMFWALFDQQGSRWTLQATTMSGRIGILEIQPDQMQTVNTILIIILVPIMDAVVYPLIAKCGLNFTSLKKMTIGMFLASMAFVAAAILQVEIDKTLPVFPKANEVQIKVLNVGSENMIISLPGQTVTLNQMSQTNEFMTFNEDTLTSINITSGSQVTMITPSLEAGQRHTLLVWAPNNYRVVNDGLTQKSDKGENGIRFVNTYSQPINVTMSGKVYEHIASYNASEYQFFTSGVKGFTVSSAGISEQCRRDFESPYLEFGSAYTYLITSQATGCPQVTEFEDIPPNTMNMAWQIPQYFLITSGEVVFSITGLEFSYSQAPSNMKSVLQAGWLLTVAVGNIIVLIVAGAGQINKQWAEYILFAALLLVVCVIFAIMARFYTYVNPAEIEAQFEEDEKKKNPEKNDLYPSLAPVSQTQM
Protocol: Trans-stimulation assays were performed using radiolabelled [^3H]-D-Phe-L-Gln efflux from rabbit PepT1 expressing oocytes in the presence of 10 mM pro-drug. As controls, 10 mM Gly-L-Gln (a standard PepT1 substrate) or buffer lacking a substrate (negative control) were used.
(§1) The Ki, trans-stimulation efflux and Caco-2 assays were performed as described previously.

[4] = target: T1, rabbit PepT1; assay: Inhibition of radiolabelled D-Phe-L-Gln uptake in Xenopus laevis oocytes expressing rabbit PepT1 (binding affinity); conditions: oocytes expressing rabbit PepT1, pH 5.5 assay buffer
Protocol: as §1

[5] = pH 5.5
[6] = rats; cited from earlier work
[7] = humans; cited from earlier work
[8] = male, Sprague-Dawley, rat, in vivo, po, 6 mg/kg
Protocol: as §2, §3, §4, §5

[9] = in vivo; conditions: male, Sprague-Dawley, rat, po, 6 mg/kg
Protocol: as §2, §3, §4, §5

[10] = Caco-2 monolayer apical to basolateral transport; format: in vitro ADME; conditions: human, 2 mM prodrug, mean ± RSD, read-out: Overall Papp
Protocol: Prodrugs that generated robust trans-stimulated efflux in oocytes were further in a Caco-2 monolayer assay to investigate further the extent and rate of trans-epithelial transport. […] Apical to basolateral transport of 2 mM pro-drug, applied to the apical side, was monitored by high performance liquid chromatography (HPLC) after 1 h. The presence or absence of excess Gly-Gln allowed us to determine both the overall and PepT1 specific permeability (Table 2). […] The PepT1 mediated Papp values are of similar magnitude to known PepT1 (pro)drug substrates.
as §1

[11] = target: T1, rabbit PepT1; set-up: method as in PMID 19262922; conditions: 10 mM prodrug, [3H]-D-Phe-L-Gln efflux; previously reported data ref 16; cited from earlier work

With C[C@H](NC(=O)[C@@H](N)Cc1c[nH]c2ccccc12)C(=O)O [L-Trp-L-Ala, reference compound] (H-Trp-Ala-OH) as the compound, how does the half-life at 0.5 mM [1] read?
The half-life at 0.5 mM was 0.15 h.

For CC(C)c1cccc(C(C)C)c1OC(=O)C[C@H](NC(=S)[C@H](C)N)C(=O)O [Compound 3, (S)-2-((S)-2-Amino-thiopropionylamino)-succinic acid 4-(2,6-diisopropyl-phenyl) ester], which Cmax ([2]; 3 at 7.6 mg kg^−1 oral, assayed compound intact 3) is on record?
Its Cmax is 16300 ± 1800 ng/mL.

What about the AUC ([2]; male, Sprague-Dawley, rat, plasma, po, 7.6 mg/kg) of the same compound?
Its AUC is 3200 ± 1400 ng·h/mL.

What about the Cmax ([2]; male, Sprague-Dawley, rat, plasma, po, 7.6 mg/kg, CMax, 3 at 7.6 mg kg^−1 oral, assayed compound intact 3) of the same compound?
Its Cmax is 16700 ng/mL.

And the Tmax ([2]; male, Sprague-Dawley, rat, plasma, po, 7.6 mg/kg, 3 at 7.6 mg kg^−1 oral, assayed compound intact 3)?
The Tmax was 5.2 ± 0.8 h.

And the “Rat liver homgenate t1/2” value ([1]; 0.5 mM compound)?
The value was 7.3 h.

What about the half-life at 0.5 mM [1] of the same compound?
The half-life at 0.5 mM was 7 h.

What about the “Trans-stimulated efflux?” value [3] of the same compound?
The value was “Yes”.

And the Ki [4]?
The Ki was 920 ± 190 µM.

Which “Stability in assay buffer” value [5] does the source give for “(S)-2-((S)-2-Amino-thiopropionylamino)-succinic acid 4-[2-(2-amino-6-oxo-1,6-dihydro-purin-9-ylmethoxy)-ethyl] ester [Compound 5]” here?
The value was “limited stability”.

With COc1c(C)c2c(c(O)c1C/C=C(\C)CCC(=O)OC[C@H](NC(=S)[C@H](C)N)C(=O)O)C(=O)OC2 (as salt: salt) (hydrate or solvate) [Compound 11, (S)-2-((S)-2-aminopropanethioamido)-3-((E)-6-(4-hydroxy-6-methoxy-7-methyl-3-oxo-1,3-dihydroisobenzofuran-5-yl)-4-methylhex-4-enoyloxy)propanoic acid] as the compound, how does the melting point read?
Its melting point is 140 to 143 °C.

Which results are given for COc1c(C)c2c(c(O)c1C/C=C(\C)CCC(=O)OC[C@H](NC(=S)[C@H](C)N)C(=O)O)C(=O)OC2 [Compound 11, (S)-2-((S)-2-aminopropanethioamido)-3-((E)-6-(4-hydroxy-6-methoxy-7-methyl-3-oxo-1,3-dihydroisobenzofuran-5-yl)-4-methylhex-4-enoyloxy)propanoic acid]?
Trans-stimulated efflux? [3]: only weakly triggered efflux and Weak; Ki [4]: 210 ± 80 µM

With CC(C)c1cccc(C(C)C)c1O [propofol] as the compound, how does the Oral bioavailability [6] read?
Its Oral bioavailability is “no oral bioavailability”.

And the Oral bioavailability [7]?
Its Oral bioavailability is “no oral bioavailability”.

For CC(C)Cc1ccc(C(C)C(=O)O)cc1 (stereo not shown) [Ibuprofen], which Tmax [8] is on record?
The Tmax was 0.7 ± 0.3 h.

What about the AUC [9] of the same compound?
Its AUC is 14000 ± 1800 ng·h/mL.

And the Cmax ([9]; CMax)?
The Cmax was 5700 ± 600 ng/mL.

What about the Tmax ([9]; tmax) of the same compound?
The Tmax was 1 h.

Which “Trans-stimulated efflux?” value [3] does the source give for CC(=O)N[C@H]1[C@H]([C@H](O)[C@H](O)COC(=O)C[C@H](NC(=S)[C@H](C)N)C(=O)O)OC(C(=O)O)=C[C@@H]1NC(=N)N [Compound 9, (4S,5R,6R)-5-acetamido-6-((1R,2R)-3-((S)-3-((S)-2-aminopropanethioamido)-3-carboxypropanoyloxy)-1,2-dihydroxypropyl)-4-guanidino-5,6-dihydro-4H-pyran-2-carboxylic acid] here?
The value was “No”.

And the Ki [4]?
The Ki was 130 ± 20 µM.

With C[C@H](N)C(=S)N[C@@H](COC(=O)CC1(CN)CCCCC1)C(=O)O [Compound 2, (S)-3-[2-(1-Aminomethyl-cyclohexyl)-acetoxy]-2-((S)-2-amino-thiopropionylamino)-propionic acid] as the compound, how does the Papp at 1 h, 2 mM [10] read?
Its Papp at 1 h, 2 mM is 0.6 ± 0.1 ×10⁻⁶ cm/s.

What about the “Trans-stimulated efflux?” value [3] of the same compound?
The value was “Yes”.

What about the Ki [4] of the same compound?
The Ki was 1010 ± 330 µM.

With C[C@H](N)C(=S)N[C@@H](COC(=O)C[C@@H](CN)c1ccc(Cl)cc1)C(=O)O (as salt: salt) (hydrate or solvate) [Compound 10, (S)-3-((R)-4-amino-3-(4-chlorophenyl)butanoyloxy)-2-((S)-2-aminopropanethioamido)propanoic acid] as the compound, how does the melting point read?
Its melting point is 112 to 115 °C.

What does the source list for CC(C)NC[C@@H](COc1ccc(CC(N)=O)cc1)OC(=O)C[C@H](NC(=S)[C@H](C)N)C(=O)O [Compound 8, (S)-4-((S)-3-(4-(2-amino-2-oxoethyl)phenoxy)-1-(isopropylamino)propan-2-yloxy)-2-((S)-2-aminopropanethioamido)-4-oxobutanoic acid]?
Trans-stimulated efflux? [3]: No; Ki [4]: 440 ± 150 µM

For COc1ccc2cc(CC/C(C)=N/OCCOC(=O)C[C@H](NC(=S)[C@H](C)N)C(=O)O)ccc2c1 [Compound 6], which “Trans-stimulated efflux?” value [11] is on record?
The value was “Yes”.

Which melting point does the source give for CC(=O)N[C@H]1[C@H]([C@H](O)[C@H](O)COC(=O)C[C@H](NC(=S)[C@H](C)N)C(=O)O)OC(C(=O)O)=C[C@@H]1NC(=N)N (as salt: salt) (hydrate or solvate) [Compound 9, (4S,5R,6R)-5-acetamido-6-((1R,2R)-3-((S)-3-((S)-2-aminopropanethioamido)-3-carboxypropanoyloxy)-1,2-dihydroxypropyl)-4-guanidino-5,6-dihydro-4H-pyran-2-carboxylic acid] here?
The melting point was 210 to 212 °C.

Which Papp at 1 h, 2 mM [10] does the source give for C[C@H](NC(=O)[C@@H](N)Cc1ccccc1)C(N)=S [FSA, PheΨ[CS-NH]-Ala, reference compound] here?
Its Papp at 1 h, 2 mM is 3 ± 0.5 ×10⁻⁶ cm/s.

What about the “Trans-stimulated efflux?” value [3] of the same compound?
The value was “No”.

And the Ki [4]?
Its Ki is 320 ± 80 µM.

Which “Trans-stimulated efflux?” value [3] does the source give for C[C@H](N)C(=S)N[C@@H](COC(=O)C[C@@H](CN)c1ccc(Cl)cc1)C(=O)O [Compound 10, (S)-3-((R)-4-amino-3-(4-chlorophenyl)butanoyloxy)-2-((S)-2-aminopropanethioamido)propanoic acid] here?
The value was “No”.

And the Ki [4]?
Its Ki is 1870 ± 260 µM.

For “(S)-2-((S)-2-Amino-thiopropionylamino)-succinic acid 4-(2-{2-[2-(2-acetoxy-benzoyloxy)-ethoxy]-ethoxy}-ethyl) ester [Compound 4]”, which “Stability in assay buffer” value [5] is on record?
Its value is “limited stability”.

Which Papp at 1 h, 2 mM [10] does the source give for CC(C)Cc1ccc([C@@H](C)C(=O)OC[C@H](NC(=S)[C@H](C)N)C(=O)O)cc1 [Compound 1] here?
Its Papp at 1 h, 2 mM is 3.7 ± 0.2 ×10⁻⁶ cm/s.

And the AUC ([2]; male, Sprague-Dawley, rat, plasma, po, 10 mg/kg)?
Its AUC is 500 ± 100 ng·h/mL.

And the Cmax ([2]; male, Sprague-Dawley, rat, plasma, po, 10 mg/kg, CMax, 1 at 10 mg kg^−1 oral, assayed compound intact 1)?
Its Cmax is 200 ± 40 ng/mL.

And the Tmax ([2]; male, Sprague-Dawley, rat, plasma, po, 10 mg/kg, 1 at 10 mg kg^−1 oral, assayed compound intact 1)?
The Tmax was 1 h.

What about the half-life at 0.5 mM [1] of the same compound?
The half-life at 0.5 mM was greater than 17 h.

What about the “Trans-stimulated efflux?” value [3] of the same compound?
The value was “Yes”.

What about the Ki [4] of the same compound?
Its Ki is 260 ± 30 µM.

For CC(C)NC[C@@H](COc1ccc(CC(N)=O)cc1)OC(=O)C[C@H](NC(=S)[C@H](C)N)C(=O)O (as salt: salt) [Compound 8, (S)-4-((S)-3-(4-(2-amino-2-oxoethyl)phenoxy)-1-(isopropylamino)propan-2-yloxy)-2-((S)-2-aminopropanethioamido)-4-oxobutanoic acid], which melting point is on record?
The melting point was 118 to 121 °C.
